Source: patent US4563472A, “Iodoallyl and iodopropargyl substituted tetrazoles and anti-microbial compositions thereof” (Meiji Seika Kaisha, Ltd., priority 1982, dated 1986)
Values after ≈ are worked out from the molar mass of the structure shown. Where two headings read alike, the source gives them in different places.

What was measured:
[1] = system: Staphylococcus aureus 209P JC-1; test: Antibacterial Activity (in medicinal field), MIC; type: cell-based; details: Staphylococcus aureus 209P JC-1; read-out: Minimal Inhibitory Conc. (MIC)
[2] = system: Staphylococcus epidermidis ATCC 14990; test: Antibacterial Activity (in medicinal field), MIC; type: cell-based; details: ATCC14990; Staphylococcus epidermidis ATCC 14990; read-out: Minimal Inhibitory Conc. (MIC)
[3] = system: Shigella sonnei EW 33 Type I; test: Antibacterial Activity (in medicinal field), MIC; type: cell-based; details: Shigella sonnei, EW33TYPEI, read-out: Minimal Inhibitory Conc. (MIC)
[4] = system: Klebsiella pneumoniae PCI-602; test: Antibacterial Activity (in medicinal field), MIC; type: cell-based; details: PCI602, read-out: Minimal Inhibitory Conc. (MIC)
Proteus vulgaris OX-19 = test: Antibacterial Activity (in medicinal field), MIC; type: cell-based; details: OX19, read-out: Minimal Inhibitory Conc. (MIC)
[5] = system: Pseudomonas cepacia M-0527; test: Antibacterial Activity (in medicinal field), MIC; type: cell-based; details: Burkholderia cepacia, M0527, read-out: Minimal Inhibitory Conc. (MIC)
Candida alubicans GA-24 = test: Antifungal Activity (in Medicinal Field), MIC; type: cell-based; details: GA24; Candida alubicans GA-24; read-out: Minimal Inhibitory Conc. (MIC)
[6] = system: Cryptococcus neoformans Cr-1; test: Antifungal Activity (in Medicinal Field), MIC; type: cell-based; details: CR1, read-out: Minimal Inhibitory Conc. (MIC)
[7] = system: Trichophyton metagrophytes 530324; test: Antifungal Activity (in Medicinal Field), MIC; type: cell-based; details: Trichophyton metagrophytes 530324; read-out: Minimal Inhibitory Conc. (MIC)
[8] = system: Trichophyton interdigitale; test: Antifungal Activity (in Medicinal Field), MIC; type: cell-based; details: read-out: Minimal Inhibitory Conc. (MIC)
[9] = system: Aspergillus fumigatus Saito; test: Antifungal Activity (in Medicinal Field), MIC; type: cell-based; details: read-out: Minimal Inhibitory Conc. (MIC)
[10] = system: Aspergillus flavus ATCC 6275; test: Antifungal Activity (in Industrial Field), MIC; type: cell-based; details: ATCC6275, read-out: Minimal Inhibitory Conc. (MIC)
[11] = system: Aspergillus terreus PQMD 82 j; test: Antifungal Activity (in Industrial Field), MIC; type: cell-based; details: PQMD82J, read-out: Minimal Inhibitory Conc. (MIC)
[12] = system: Penicillium luteum ATCC 9644; test: Antifungal Activity (in Industrial Field), MIC; type: cell-based; details: Ascospirella lutea, ATCC9644, read-out: Minimal Inhibitory Conc. (MIC)
Mucor spinescens IAM Mu3 = test: Antifungal Activity (in Industrial Field), MIC; type: cell-based; details: IAMMU3, read-out: Minimal Inhibitory Conc. (MIC)
[13] = system: Cladosporium herbarum IAM F-517; test: Antifungal Activity (in Industrial Field), MIC; type: cell-based; details: IAMF517, read-out: Minimal Inhibitory Conc. (MIC)
[14] = system: Pullularia pullulans IAM F-24; test: Antifungal Activity (in Industrial Field), MIC; type: cell-based; details: IAMF24; Pullularia pullulans IAM F-24; read-out: Minimal Inhibitory Conc. (MIC)
[15] = system: Trichoderma T-1 ATCC 9645; test: Antifungal Activity (in Industrial Field), MIC; type: cell-based; details: ATCC9645, read-out: Minimal Inhibitory Conc. (MIC)
[16] = system: Chaetomium globosum ATCC 6205; test: Antifungal Activity (in Industrial Field), MIC; type: cell-based; details: ATCC6205, read-out: Minimal Inhibitory Conc. (MIC)
[17] = system: Aspergillus fumigatus IAM 2621; test: Antifungal Activity (in Industrial Field), MIC; type: cell-based; details: IAM2621, read-out: Minimal Inhibitory Conc. (MIC)
[18] = system: Xanthomonas campestris pv. oryzae; test: microbe, parasite or virus in culture; type: cell-based; details: read-out: Minimal Inhibitory Conc. (MIC)
[19] = system: Xanthomonas campestris pv. citri; test: Antibacterial and Antifungal Activities (in Agricultural Field), MIC; type: cell-based; details: read-out: Minimal Inhibitory Conc. (MIC)
[20] = system: Pseudomonas syringae pv. tabaci; test: as above; type: cell-based; details: read-out: Minimal Inhibitory Conc. (MIC)
Erwinia carotovora = test: as above; type: cell-based; details: Pectobacterium carotovorum, read-out: Minimal Inhibitory Conc. (MIC)
[21] = system: Corynebacterium michiganense; test: as above; type: cell-based; details: Clavibacter michiganensis, read-out: Minimal Inhibitory Conc. (MIC)
Diaporithe citri = test: as above; type: cell-based; details: read-out: Minimal Inhibitory Conc. (MIC)
[22] = system: Colletotrichum lagenarium; test: as above; type: cell-based; details: Colletotrichum orbiculare, read-out: Minimal Inhibitory Conc. (MIC)
Alternaria kikuchiana = test: as above; type: cell-based; details: read-out: Minimal Inhibitory Conc. (MIC)
Glomerella cingulata = test: as above; type: cell-based; details: Colletotrichum gloeosporioides, read-out: Minimal Inhibitory Conc. (MIC)
Botrytis cinerea = test: as above; type: cell-based; details: read-out: Minimal Inhibitory Conc. (MIC)
[23] = system: Fusarium oxysporum f. lycopersici; test: as above; type: cell-based; details: read-out: Minimal Inhibitory Conc. (MIC)
Gibberella fujikuroi = test: as above; type: cell-based; details: Fusarium fujikuroi, read-out: Minimal Inhibitory Conc. (MIC)
Cochliobolus miyabeanus = test: as above; type: cell-based; details: Bipolaris oryzae, read-out: Minimal Inhibitory Conc. (MIC)
Pellicularia filamentosa = test: as above; type: cell-based; details: read-out: Minimal Inhibitory Conc. (MIC)
Phricularia oryzae = test: as above; type: cell-based; details: read-out: Minimal Inhibitory Conc. (MIC)
[24] = system: Trichophyton mentagrophytes; test: Therapeutic experiment on trichophytosis in guinea pigs, visual observation; type: in vivo, guinea pigs (White Hartly-strain); details: 1% preparation, 0.25 ml once per day, 8 consecutive days
[25] = system: Trichophyton mentagrophytes; test: Reducing culture positive rate of skin slices from infected guinea pigs; type: in vivo, guinea pigs (White Hartly-strain); parameters: concentration or dose not given beside the values; details: after 8 days application, non-treated 100

Row | SMILES | MIC (Candida alubicans GA-24) | MIC [6] | MIC [7] | MIC [8] | MIC [9] | MIC [18] | MIC [19] | MIC [20] | MIC (Erwinia carotovora) | MIC (Diaporithe citri) | MIC [22] | MIC (Alternaria kikuchiana) | MIC (Glomerella cingulata) | MIC (Botrytis cinerea) | MIC [23] | MIC (Gibberella fujikuroi) | MIC (Cochliobolus miyabeanus) | MIC (Pellicularia filamentosa) | other results
1 | O=[N+]([O-])c1nccn1CC(I)=C(I)I [1-(2',3',3'-triiodoallyl)-2-nitroimidazole] | 0.78 µg/mL (≈ 1.47 µM) | 25 µg/mL (≈ 47.1 µM) | 0.78 µg/mL (≈ 1.47 µM) | 1.56 µg/mL (≈ 2.94 µM) | 0.78 µg/mL (≈ 1.47 µM) | 12.5 µg/mL (≈ 23.5 µM) | 25 µg/mL (≈ 47.1 µM) | 12.5 µg/mL (≈ 23.5 µM) | 12.5 µg/mL (≈ 23.5 µM) | 1.56 µg/mL (≈ 2.94 µM) | 0.78 µg/mL (≈ 1.47 µM) | 0.78 µg/mL (≈ 1.47 µM) | 0.78 µg/mL (≈ 1.47 µM) | 0.19 µg/mL (≈ 0.358 µM) | 1.56 µg/mL (≈ 2.94 µM) | 0.78 µg/mL (≈ 1.47 µM) | 0.78 µg/mL (≈ 1.47 µM) | 25 µg/mL (≈ 47.1 µM) | MIC [1]: 12.5 µg/mL (≈ 23.5 µM); MIC [2]: 12.5 µg/mL (≈ 23.5 µM); MIC [3]: 3.12 µg/mL (≈ 5.88 µM); MIC [4]: 6.25 µg/mL (≈ 11.8 µM); MIC (Proteus vulgaris OX-19): 6.25 µg/mL (≈ 11.8 µM); MIC [5]: 3.12 µg/mL (≈ 5.88 µM); MIC [10]: 1.56 µg/mL (≈ 2.94 µM); MIC [11]: 0.78 µg/mL (≈ 1.47 µM); MIC [12]: 3.13 µg/mL (≈ 5.9 µM); MIC (Mucor spinescens IAM Mu3): 6.25 µg/mL (≈ 11.8 µM); MIC [13]: 0.39 µg/mL (≈ 0.735 µM); MIC [14]: 3.13 µg/mL (≈ 5.9 µM); MIC [15]: 6.25 µg/mL (≈ 11.8 µM); MIC [16]: 1.56 µg/mL (≈ 2.94 µM); MIC [17]: 6.25 µg/mL (≈ 11.8 µM); MIC ([21]; Corynebacterium michiganense): 3.13 µg/mL (≈ 5.9 µM)
2 | O=[N+]([O-])c1ccn(CC(I)=C(I)I)c1 [1-(2',3',3'-triiodoallyl)-3-nitropyrrole] | 0.19 µg/mL (≈ 0.359 µM) | 0.39 µg/mL (≈ 0.736 µM) | 0.19 µg/mL (≈ 0.359 µM) | 0.39 µg/mL (≈ 0.736 µM) | 0.09 µg/mL (≈ 0.17 µM) | 25 µg/mL (≈ 47.2 µM) | 50 µg/mL (≈ 94.4 µM) | 6.25 µg/mL (≈ 11.8 µM) | 6.25 µg/mL (≈ 11.8 µM) | 0.39 µg/mL (≈ 0.736 µM) | 0.39 µg/mL (≈ 0.736 µM) | 0.78 µg/mL (≈ 1.47 µM) | 0.39 µg/mL (≈ 0.736 µM) | 0.19 µg/mL (≈ 0.359 µM) | 0.78 µg/mL (≈ 1.47 µM) | 0.39 µg/mL (≈ 0.736 µM) | 12.5 µg/mL (≈ 23.6 µM) | 50 µg/mL (≈ 94.4 µM) | MIC [21]: 0.98 µg/mL (≈ 1.85 µM); MIC (Phricularia oryzae): 1.56 µg/mL (≈ 2.94 µM); Therapeutic Effect: Desquamation [24]: effective; Therapeutic Effect: Thickening [24]: effective; Reducing Culture Positive Rate ([25]; 3 days culture): 16.7%; Reducing Culture Positive Rate ([25]; 5 days culture): 25.0%; Reducing Culture Positive Rate ([25]; 7 days culture): 33.3%
